Publication PMC3154276, “The Effect of the Potential PhoQ Histidine Kinase Inhibitors on Shigella flexneri Virulence” (PLoS ONE, 2011)

Experiments:
[1] = target: T1, SF-PhoQc (Shigella flexneri, UniProt Q83RR1); test: Pyrophosphate Reagent coupled enzymatic activity assay of SF-PhoQc; assay type: biochemical, S. flexneri 2a 301; conditions: for decrease of SF-PhoQc catalyzed consumption of ATP: Pyrophosphate Reagent
T1 construct: The amplified DNA segment encodes PhoQ HK amino acids 251–486; made in house; host or cells: E. coli JM109
T1 sequence (Q83RR1 251-486): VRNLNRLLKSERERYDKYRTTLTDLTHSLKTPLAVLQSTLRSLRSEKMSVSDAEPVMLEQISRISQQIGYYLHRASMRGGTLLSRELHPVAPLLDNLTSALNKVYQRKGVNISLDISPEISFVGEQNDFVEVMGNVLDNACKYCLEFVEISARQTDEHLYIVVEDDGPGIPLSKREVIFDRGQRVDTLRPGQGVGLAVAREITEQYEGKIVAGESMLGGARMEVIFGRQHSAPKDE
Protocol: The enzymatic activity of SF-PhoQc was determined using the Pyrophosphate Reagent, in which ATP initiates the reaction and ADP generated by ATP is accompanied by the reduction of NADH to NAD^+. The rate of NADH reduction to NAD^+ is detected by a change in absorbance readings at 340 nm. The activity of SF-PhoQc is measured by detecting a decrease in NADH at A340. Recombinant SF-PhoQc (25 µmol/L) was added to initiate the reaction, and the A340 value was recorded by SoftMax vision 4.8 each minute for 30 minutes. The A340 value reduced from 1.47 to 0.65 in the presence of SF-PhoQc (Figure 2).
Figure 2 The activity of recombinant SF-PhoQc. The activity of SF-PhoQc from the Pyrophosphate Reagent was shown. All assays were conducted in a 96-well microplate spectrophotometer. The assay mixture (total volume was 200 µl) contained 25 mmol/L KCl, 2.5 mmol/L MgCl2, 2 mmol/L ATP, 1 mmol/L phosphoendpyruvate, 0.35 mmol/L NADH, 1.5 U/ml PK, 1.25 U/ml LDH and 50 mmol/L Tris-Cl (pH 8.0). Protein SF-PhoQc was added to a final concentration of 25 µmol/L to start the reaction. After SF-PhoQc was added, the A340 value was recorded by SoftMax vision 4.8 every minute for 30 minutes.
The enzymatic activity of SF-PhoQc was measured using both a Pyrophosphate Reagent (Sigma-Aldrich, MO, USA) and a Luminescent Kinase Assay (Promega, WI, USA). The Pyrophosphate Reagent was performed to confirm the inhibitory activities of the effective potential PhoQ inhibitors in the bioinformatics approach. All reactions were carried out in solid black, flat-bottomed 96-well plates. The Pyrophosphate Reagent was performed at 28°C by monitoring the decrease of NADH by a decrease in absorbance readings at 340 nm (ε340 = 6180 M^−1·cm^−1) in the presence of ATP. The final reaction mixture for the Pyrophosphate Reagent contained 25 µmol/L purified SF-PhoQc, 25 mmol/L KCl, 2.5 mmol/L MgCl2, 2 mmol/L ATP, 1 mmol/L phosphoendpyruvate, 0.35 mmol/L NADH, 1.5 U/ml PK, 1.25 U/ml LDH and 50 mmol/L Tris-Cl (pH 8.0). The enzyme activity was determined in the presence of various concentrations of potential PhoQ inhibitors […] to investigate dose-dependent inhibition effects. The A340 value was recorded by SoftMax vision 4.8 every minute, for 30 minutes. The rate of SF-PhoQc enzymatic activity inhibition by a compound was calculated by the following formula: [drawing 1]
Rp (Ratio of Phosphorylation) was defined as the ratio of the decrease activity of SF-PhoQc treated with compound vs the activity of SF-PhoQc treated without compounds. Rp was stand for the percentage of decrease activity of SF-PhoQc.
IC50(the concentration of inhibition of 50%)values of potential PhoQ inhibitors were obtained by fitting the data to a sigmoid dose–response equation using Origin 7.0 software (OriginLab, Northampton, USA).

[2] = test system: S. flexneri Sf9380; test: Mouse Sereny test (keratoconjunctivitis); as to degree of keratoconjunctival inflammation: key: −: no disease; ±: little keratoconjunctivitis; +: mild keratoconjunctivitis; ++: keratoconjunctivitis with some purulence; +++: fully developed keratoconjunctivitis with great purulence; assay type: in vivo, BALB/c mice; conditions: for degree of keratoconjunctival inflammation: Sf9380 pre-treated at the concentration (I 1 12.5, I 2 25, I 3 and I 4 100 µmol/L); for keratoconjunctival inflammation (words, abstract): mice inoculated with pre-treated S. flexneri 9380
Text: A Mouse Sereny test was used to investigate the inhibitory effect of the four potential PhoQ inhibitors on the virulence of S. flexneri Sf9380. The mice were infected with 1×10^8 CFUs per eye.
A Mouse Sereny test was used to evaluate the virulence of S. flexneri Sf9380 [48]. A single red colony of Sf9380 on Congo Red agar (Tryptic soy broth provided by Oxfoid Co. with 1.5% agar and 0.01% Congo red), was inoculated into LB and grown with or without potential PhoQ inhibitors (final concentration 100,50,25,12.5 or 6.25 µmol/L) at 37°C for 8 hours with constant shaking. The female BALB/c mice (about 18 g) were infected with 1×10^8 CFUs per eye. The eye of the mouse was inoculated with the bacterium with or without potential PhoQ inhibitor treatment (n = 6 mice in each group). […] In the experiment, mouse eyes inoculated with untreated Sf9380 (treated without DMSO) served as the positive control for keratoconjunctivitis, and mouse eyes inoculated with E. coli ATCC 25922 (treated without DMSO) served as the negative control. Because DMSO is the solvent of the potential PhoQ inhibitor, Sf9380 was treated with the same amount of DMSO (0.1%) as the other groups. The invasiveness of the bacteria was scored: no disease or mild irritation as “−”, + as mild conjunctivitis or late development and/or rapid clearing of symptoms, ++ as keratoconjunctivitis without purulence, and +++ as fully developed keratoconjunctivitis with purulence.

[3] = Sf9380 pre-treated with 12.5 µmol/L, 1×10^8 CFUs per eye
[4] = Sf9380 pre-treated with 25 µmol/L, 1×10^8 CFUs per eye
[5] = Sf9380 pre-treated with 100 µmol/L, 1×10^8 CFUs per eye

SMILES	IC50 [1]	decrease of SF-PhoQc catalyzed consumption of ATP [1]	degree of keratoconjunctival inflammation ([2]; 24 h, mouse 1)	degree of keratoconjunctival inflammation ([2]; 24 h, mouse 2)	degree of keratoconjunctival inflammation ([2]; 24 h, mouse 3)	degree of keratoconjunctival inflammation ([2]; 24 h, mouse 4)	degree of keratoconjunctival inflammation ([2]; 24 h, mouse 5)	degree of keratoconjunctival inflammation ([2]; 24 h, mouse 6)	degree of keratoconjunctival inflammation ([2]; 48 h, mouse 1)	degree of keratoconjunctival inflammation ([2]; 48 h, mouse 2)	degree of keratoconjunctival inflammation ([2]; 48 h, mouse 3)	degree of keratoconjunctival inflammation ([2]; 48 h, mouse 4)	degree of keratoconjunctival inflammation ([2]; 48 h, mouse 5)	degree of keratoconjunctival inflammation ([2]; 48 h, mouse 6)	degree of keratoconjunctival inflammation ([2]; 72 h, mouse 1)	degree of keratoconjunctival inflammation ([2]; 72 h, mouse 2)	degree of keratoconjunctival inflammation ([2]; 72 h, mouse 3)	degree of keratoconjunctival inflammation ([2]; 72 h, mouse 4)	degree of keratoconjunctival inflammation ([2]; 72 h, mouse 5)	degree of keratoconjunctival inflammation ([2]; 72 h, mouse 6)	further results
O=C(Nc1ccc(C2(c3cccc(NC(=O)c4cccc5ccccc45)c3)c3ccccc3C(=O)c3ccccc32)cc1)c1ccc2ccccc2c1 [Compound 1]	12 ± 3.91 µM	100%	+	+	+	−	+	+	−	−	+	−	−	−	−	−	−	−	−	−	degree of keratoconjunctival inflammation ([2]; 96 h, mouse 1): −; degree of keratoconjunctival inflammation ([2]; 96 h, mouse 2): −; degree of keratoconjunctival inflammation ([2]; 96 h, mouse 3): −; degree of keratoconjunctival inflammation ([2]; 96 h, mouse 4): −; degree of keratoconjunctival inflammation ([2]; 96 h, mouse 5): −; degree of keratoconjunctival inflammation ([2]; 96 h, mouse 6): −; eye finding at 24 hours after infection [2, 3]: slight conjunctival inflammation; time by which keratoconjunctivitis was resolved [2, 3]: ≤ 48 h; keratoconjunctival inflammation (words, abstract) [2]: no inflammation
CCOc1ccccc1-c1cc(C(=O)N/N=C/c2ccc(OCc3ccccc3)c(OC)c2)c2ccccc2n1 [Compound 2]	57 ± 1.04 µM	82.3%	+	+	+	+	+	+	−	+	−	−	−	−	−	−	−	−	−	−	degree of keratoconjunctival inflammation ([2]; 96 h, mouse 1): −; degree of keratoconjunctival inflammation ([2]; 96 h, mouse 2): −; degree of keratoconjunctival inflammation ([2]; 96 h, mouse 3): −; degree of keratoconjunctival inflammation ([2]; 96 h, mouse 4): −; degree of keratoconjunctival inflammation ([2]; 96 h, mouse 5): −; degree of keratoconjunctival inflammation ([2]; 96 h, mouse 6): −; eye finding at 24 hours after infection [2, 4]: slight conjunctival inflammation; time by which keratoconjunctivitis was resolved [2, 4]: ≤ 48 h; keratoconjunctival inflammation (words, abstract) [2]: no inflammation
O=C(O)c1ccc(Cl)c(-c2ccc(/C=N/NC(=O)c3ccc(Br)cc3)o2)c1 [Compound 3]	27.8 ± 10.7 µM	67.1%	+	+	+	+	+	+	+	−	−	−	+	−	−	+	−	−	−	−	degree of keratoconjunctival inflammation ([2]; 96 h, mouse 1): −; degree of keratoconjunctival inflammation ([2]; 96 h, mouse 2): −; degree of keratoconjunctival inflammation ([2]; 96 h, mouse 3): −; degree of keratoconjunctival inflammation ([2]; 96 h, mouse 4): −; degree of keratoconjunctival inflammation ([2]; 96 h, mouse 5): −; degree of keratoconjunctival inflammation ([2]; 96 h, mouse 6): −; eye finding at 24 hours post-infection [2, 5]: slight conjunctival inflammation; time by which keratoconjunctivitis was resolved [2, 5]: ≤ 72 h; keratoconjunctival inflammation (words, abstract) [2]: no inflammation
